This is an account of results in patent publication US11566007B2, “Ras inhibitors” (Revolution Medicines, Inc., priority 2019, dated 2023).

As usually defined, the IC50 is the point on the concentration scale where inhibition reaches its midpoint.

Assay type in all cases: biochemical
In one test the target is KRAS WT (Homo sapiens (Human), UniProt P01116+P62937). Description: Ras-Raf (BRAF RBD) disruption / FRET / MOA assay, KRAS WT. The note with it: read-out: IC50* KRAS WT FRET data. A digest of the protocol:
(§1)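 Compounds, top final concentration 30 μM in 10-point 3-fold series, incubated 3 hours at 25° C with nucleotide-loaded Ras, cyclophilin A and BRAF RBD.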

The target in the next test is KRAS G12S (Homo sapiens (Human), UniProt P01116+P62937, G12S). Kind of test: Ras-Raf (BRAF RBD) disruption / FRET / MOA assay, KRAS G12S. To be noted: Ras-Raf disruption/FRET/MOA assay; class symbols; read-out: KRAS G12S FRET data IC50. An outline of the steps:
as §1

In the next test the target is K-Ras G12C (Homo sapiens (Human), UniProt P01116+P62937, G12C). Description: Ras-Raf (BRAF RBD) disruption / FRET / MOA assay, KRAS G12C. To be noted: KRAS G12C; Ras-Raf disruption/FRET/MOA assay; read-out: IC50* KRAS G12C FRET data. An outline of the steps:
as §1

The next test concerns the target NRAS Q61K (Homo sapiens (Human), UniProt P01111+P62937, Q61K). Kind of test: Ras-Raf (BRAF RBD) disruption / FRET / MOA assay, NRAS Q61K. To be noted: NRAS Q61K; Ras-Raf disruption/FRET/MOA assay; read-out: IC50* NRAS Q61K FRET data. An outline of the steps: (§2)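 TR-FRET disruption of nucleotide-loaded Ras binding to BRAF RBD via compound-driven ternary complex with cyclophilin A. Compound as 10-point 3-fold series from 30 μM final, 3 h at 25° C, then anti-His Eu-W1024 (10 nM) and anti-GST allophycocyanin (50 nM) for 1.5 h. IC50 from decreased FRET ratio versus DMSO.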

The target in a further test is NRAS WT (Homo sapiens (Human), UniProt P01111+P62937). Description: Ras-Raf (BRAF RBD) disruption / FRET / MOA assay, NRAS WT. The note with it: read-out: IC50* NRAS WT FRET data. A digest of the protocol:
as §2

Another test concerns the target NRAS G12C (Homo sapiens (Human), UniProt P01111+P62937, G12C). Kind of test: Ras-Raf (BRAF RBD) disruption / FRET / MOA assay, NRAS G12C. The note with it: read-out: IC50* NRAS G12C FRET data. A digest of the protocol:
as §1

Another test deals with K-Ras G13C (Homo sapiens (Human), UniProt P01116+P62937, G13C). Kind of test: Ras-Raf (BRAF RBD) disruption / FRET / MOA assay, KRAS G13C. To be noted: KRAS G13C; Ras-Raf disruption/FRET/MOA assay; read-out: IC50* KRAS G13C FRET data. An outline of the steps:
as §1

The target in the next test is KRAS G13D (Homo sapiens (Human), UniProt P01116+P62937, G13D). Description: Ras-Raf (BRAF RBD) disruption / FRET / MOA assay, KRAS G13D. To be noted: read-out: IC50* KRAS G13D FRET data. An outline of the steps: as §1
For the next test, the target named is KRAS G12V (Homo sapiens (Human), UniProt P01116+P62937, G12V). Description: Ras-Raf (BRAF RBD) disruption / FRET / MOA assay, KRAS G12V. The note with it: read-out: IC50* KRAS G12V FRET data. A digest of the protocol: as §1
The target of another test is NRAS Q61R (Homo sapiens (Human), UniProt P01111+P62937, Q61R). Description: Ras-Raf (BRAF RBD) disruption / FRET / MOA assay, NRAS Q61R. The note with it: NRAS Q61R; Ras-Raf disruption/FRET/MOA assay; read-out: IC50* NRAS Q61R FRET data. An outline of the steps:
as §2

A value given as a limit tells only on which side of the number the result lay.

Sequence of KRAS G12V (P01116-2 other isoform, or with tags, fused parts or gaps G12V): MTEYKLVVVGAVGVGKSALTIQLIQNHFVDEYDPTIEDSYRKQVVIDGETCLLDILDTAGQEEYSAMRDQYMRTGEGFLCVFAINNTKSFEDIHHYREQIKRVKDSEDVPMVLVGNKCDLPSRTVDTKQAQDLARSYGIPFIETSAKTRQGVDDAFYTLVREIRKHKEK
Sequence of KRAS G12V (P62937 whole entry): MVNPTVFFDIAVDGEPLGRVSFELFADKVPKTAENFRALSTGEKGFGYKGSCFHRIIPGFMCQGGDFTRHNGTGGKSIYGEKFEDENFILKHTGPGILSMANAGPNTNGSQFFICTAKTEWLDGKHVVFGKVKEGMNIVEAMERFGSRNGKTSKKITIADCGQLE
Sequence of NRAS Q61R (P01111 whole entry Q61R): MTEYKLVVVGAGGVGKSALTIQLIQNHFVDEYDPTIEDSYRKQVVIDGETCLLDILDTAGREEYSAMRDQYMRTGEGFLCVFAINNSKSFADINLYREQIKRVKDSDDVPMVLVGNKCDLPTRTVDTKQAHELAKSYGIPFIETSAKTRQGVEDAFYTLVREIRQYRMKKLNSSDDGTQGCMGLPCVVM
Sequence of NRAS Q61R (P62937 whole entry): as the sequence (P62937 whole entry) above
Sequence of NRAS WT (P01111 whole entry): as the sequence (P01111 whole entry Q61R) above, with R61Q counted along it
Sequence of NRAS WT (P62937 whole entry): as the sequence (P62937 whole entry) above
Sequence of KRAS G13D (P01116-2 other isoform, or with tags, fused parts or gaps G13D): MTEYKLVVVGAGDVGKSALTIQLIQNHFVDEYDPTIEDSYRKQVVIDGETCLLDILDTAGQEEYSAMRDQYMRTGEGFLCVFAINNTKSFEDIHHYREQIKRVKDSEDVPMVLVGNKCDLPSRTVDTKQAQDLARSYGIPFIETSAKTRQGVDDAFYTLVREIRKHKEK
Sequence of KRAS G13D (P62937 whole entry): as the sequence (P62937 whole entry) above
Sequence of KRAS WT (P01116-2 other isoform, or with tags, fused parts or gaps): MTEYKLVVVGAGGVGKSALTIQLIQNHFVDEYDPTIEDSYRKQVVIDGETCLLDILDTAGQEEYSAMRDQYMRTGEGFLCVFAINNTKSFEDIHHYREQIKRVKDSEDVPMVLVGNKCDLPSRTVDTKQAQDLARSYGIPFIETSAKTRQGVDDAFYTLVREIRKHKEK
Sequence of KRAS WT (P62937 whole entry): as the sequence (P62937 whole entry) above
Sequence of K-Ras G13C (P01116-2 other isoform, or with tags, fused parts or gaps G13C): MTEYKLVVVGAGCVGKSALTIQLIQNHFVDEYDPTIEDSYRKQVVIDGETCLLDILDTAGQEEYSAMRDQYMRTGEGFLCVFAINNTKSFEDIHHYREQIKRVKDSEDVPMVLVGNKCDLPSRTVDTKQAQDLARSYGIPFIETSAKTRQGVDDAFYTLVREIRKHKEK
Sequence of K-Ras G13C (P62937 whole entry): as the sequence (P62937 whole entry) above
Sequence of K-Ras G12C (P01116-2 other isoform, or with tags, fused parts or gaps G12C): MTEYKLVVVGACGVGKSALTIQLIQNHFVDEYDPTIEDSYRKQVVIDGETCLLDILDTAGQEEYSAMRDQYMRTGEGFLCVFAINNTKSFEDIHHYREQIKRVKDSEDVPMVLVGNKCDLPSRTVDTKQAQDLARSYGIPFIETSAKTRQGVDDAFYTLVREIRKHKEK
Sequence of K-Ras G12C (P62937 whole entry): as the sequence (P62937 whole entry) above
Sequence of KRAS G12S (P01116-2 other isoform, or with tags, fused parts or gaps G12S): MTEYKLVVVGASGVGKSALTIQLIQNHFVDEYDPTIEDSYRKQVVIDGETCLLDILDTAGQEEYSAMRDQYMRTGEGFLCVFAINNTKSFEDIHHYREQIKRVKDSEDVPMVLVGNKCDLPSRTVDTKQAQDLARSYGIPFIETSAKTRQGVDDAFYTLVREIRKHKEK
Sequence of KRAS G12S (P62937 whole entry): as the sequence (P62937 whole entry) above
Sequence of NRAS Q61K (P01111 whole entry Q61K): as the sequence (P01111 whole entry Q61R) above, with R61K counted along it
Sequence of NRAS Q61K (P62937 whole entry): as the sequence (P62937 whole entry) above
Sequence of NRAS G12C (P01111 whole entry G12C): as the sequence (P01111 whole entry Q61R) above, with G12C, R61Q counted along it
Sequence of NRAS G12C (P62937 whole entry): as the sequence (P62937 whole entry) above

With `C=CC(=O)N1CCOC2(C1)CN(C(=O)N(C)[C@H](C(=O)N[C@H]1Cc3nc(cs3)-c3ccc4c(c3)c(c(-c3cccnc3[C@H](C)OC)n4CC(F)(F)F)CC(C)(C)COC(=O)[C@@H]3CCCN(N3)C1=O)C(C)C)C2` (atropisomer, axis not shown) [Example A604], the IC50 at KRAS WT, on KRAS G12S, on K-Ras G12C, on NRAS Q61K, on NRAS WT and on NRAS G12C was 100 to 1000 nM in each case. Moreover, the IC50 is 10 to 100 nM on K-Ras G13C, 1000 to 10000 nM at KRAS G13D, 100 to 1000 nM on KRAS G12V and 100 to 1000 nM at NRAS Q61R.

For `C=CC(=O)N1CCOC2(CCN(C(=O)N(C)[C@H](C(=O)N[C@H]3Cc4cc(CF)cc(c4)-c4ccc5c(c4)c(c(-c4cccnc4[C@H](C)OC)n5CC(F)(F)F)CC(C)(C)COC(=O)[C@@H]4CCCN(N4)C3=O)C(C)C)CC2)C1` (atropisomer, axis not shown) [Example A605], the IC50 on KRAS WT fell in the range of 10 to 100 nM; on KRAS G12S, 100 to 1000 nM; on K-Ras G12C, 100 to 1000 nM; on NRAS Q61K, 100 to 1000 nM; on NRAS WT, 10 to 100 nM; at NRAS G12C, 100 to 1000 nM. Further, the IC50 at K-Ras G13C lay in the range of 10 to 100 nM; on KRAS G13D, 100 to 1000 nM; at KRAS G12V it was 100 to 1000 nM; at NRAS Q61R, 100 to 1000 nM.

On to `C=CC(=O)N1CCOC2(CCN(C(=O)N(C)[C@H](C(=O)N[C@H]3Cc4cccc(c4)-c4ccc5c(c4)c(c(-c4cccnc4[C@H](C)OC)n5CC(F)(F)F)CC(C)(C)COC(=O)[C@@H]4CCCN(N4)C3=O)C(C)C)CC2)C1` (atropisomer, axis not shown) [Example A608], for which the IC50 at KRAS WT, on KRAS G12S, on K-Ras G12C, on NRAS Q61K, at NRAS WT and at NRAS G12C was 100 to 1000 nM in each case. The IC50 was in the range of 10 to 100 nM on K-Ras G13C, 100 to 1000 nM on KRAS G13D, 100 to 1000 nM on KRAS G12V and 100 to 1000 nM at NRAS Q61R.

For the compound `C=CC(=O)N1CCC[C@@H]2CN(C(=O)N(C)[C@H](C(=O)N[C@H]3Cc4nc(cs4)-c4ccc5c(c4)c(c(-c4cccnc4[C@H](C)OC)n5CC)CC(C)(C)COC(=O)[C@@H]4CCCN(N4)C3=O)C(C)C)C[C@@H]21` (atropisomer, axis not shown) [Example A619], the IC50 at KRAS WT was in the range of 1000 to 10000 nM; at KRAS G12S, 1000 to 10000 nM; on K-Ras G12C, 100 to 1000 nM; at NRAS Q61K, 100 to 1000 nM; at NRAS WT it was 1000 to 10000 nM; at NRAS G12C it was 100 to 1000 nM. For the same compound, the IC50 at K-Ras G13C was in the range of 100 to 1000 nM; at KRAS G13D, 1000 to 10000 nM; at KRAS G12V, 1000 to 10000 nM; at NRAS Q61R it was 100 to 1000 nM.

As to `CCn1c(-c2cccnc2[C@H](C)OC)c2c3cc(ccc31)-c1csc(n1)C[C@H](NC(=O)[C@H](C(C)C)N(C)C(=O)N1CCC3(CC1)CN(C(=O)/C=C/CF)C3)C(=O)N1CCC[C@H](N1)C(=O)OCC(C)(C)C2` (atropisomer, axis not shown) [Example A622], the IC50 lay in the range of 100 to 1000 nM on KRAS WT; 100 to 1000 nM on KRAS G12S; 10 to 100 nM on K-Ras G12C; 10 to 100 nM on NRAS Q61K; 100 to 1000 nM on NRAS WT; 10 to 100 nM at NRAS G12C. The IC50 at K-Ras G13C lay in the range of 10 to 100 nM; on KRAS G13D, 100 to 1000 nM; at KRAS G12V it was 100 to 1000 nM; on NRAS Q61R, 100 to 1000 nM.

In the case of `CCn1c(-c2cccnc2[C@H](C)OC)c2c3cc(ccc31)-c1csc(n1)C[C@H](NC(=O)[C@@H](F)COC1CN(C(=O)C#CC(C)(C)N(C)C)C1)C(=O)N1CCC[C@H](N1)C(=O)OCC(C)(C)C2` (atropisomer, axis not shown) [Example A626], the concentration for half-maximal inhibition (IC50) was 1000 to 10000 nM at KRAS WT; 1000 to 10000 nM on KRAS G12S; less than 10 nM on K-Ras G12C; 1000 to 10000 nM at NRAS Q61K; 1000 to 10000 nM at NRAS WT; less than 10 nM on NRAS G12C. In addition, the IC50 on K-Ras G13C, at KRAS G13D, on KRAS G12V and at NRAS Q61R was 1000 to 10000 nM in each case.

For the compound `CO[C@@H](C)c1ncccc1-c1c2c3cc(ccc3n1CC(F)(F)F)N1CCO[C@@H](C[C@H](NC(=O)[C@H](C(C)C)N3CC[C@@]4(CCN(C(=O)C#CC(C)(C)N(C)C)C4)C3=O)C(=O)N3CCC[C@H](N3)C(=O)OCC(C)(C)C2)C1` (atropisomer, axis not shown) [Example A628], the IC50 at KRAS WT is more than 10000 nM; at KRAS G12S it was 1000 to 10000 nM; on K-Ras G12C, less than 10 nM; on NRAS Q61K it was more than 10000 nM; on NRAS WT, more than 10000 nM; on NRAS G12C, less than 10 nM. The IC50 was 1000 to 10000 nM on K-Ras G13C, more than 10000 nM on KRAS G13D, 1000 to 10000 nM at KRAS G12V and more than 10000 nM on NRAS Q61R.

As for `C=CC(=O)N(C)CCN1CCN(C(=O)N(C)[C@H](C(=O)N[C@H]2Cc3nc(cs3)-c3ccc4c(c3)c(c(-c3cccnc3[C@H](C)OC)n4CC)CC(C)(C)COC(=O)[C@@H]3CCCN(N3)C2=O)C(C)C)CC1` (atropisomer, axis not shown) [Example A630], the IC50 on KRAS WT, on KRAS G12S, at K-Ras G12C, on NRAS Q61K, on NRAS WT and on NRAS G12C was 100 to 1000 nM in each case. In addition, the IC50 on K-Ras G13C is 10 to 100 nM; at KRAS G13D, 1000 to 10000 nM; on KRAS G12V, 100 to 1000 nM; at NRAS Q61R, 100 to 1000 nM.

Take `C=CC(=O)N(C)[C@H]1CN(C(=O)N(C)[C@H](C(=O)N[C@H]2Cc3nc(cs3)-c3ccc4c(c3)c(c(-c3cccnc3[C@H](C)OC)n4CC)CC(C)(C)COC(=O)[C@@H]3CCCN(N3)C2=O)C(C)C)C[C@H]1F` (atropisomer, axis not shown) [Example A631]: the IC50 at KRAS WT was in the range of 100 to 1000 nM; at KRAS G12S, 100 to 1000 nM; at K-Ras G12C, 100 to 1000 nM; at NRAS Q61K, 10 to 100 nM; on NRAS WT it was 100 to 1000 nM; at NRAS G12C, 10 to 100 nM. Also, the IC50 on K-Ras G13C, on KRAS G13D, at KRAS G12V and at NRAS Q61R was 100 to 1000 nM throughout.

With `C=CC(=O)N1CC[C@H](C(=O)N(C)[C@@H](CC(F)(F)F)C(=O)N[C@H]2Cc3cccc(c3)-c3ccc4c(c3)c(c(-c3cccnc3[C@H](C)OC)n4CC)CC(C)(C)COC(=O)[C@@H]3CCCN(N3)C2=O)C1` (atropisomer, axis not shown) [Example A639], the IC50 at KRAS WT is 1000 to 10000 nM; at KRAS G12S it was 1000 to 10000 nM; on K-Ras G12C it was 100 to 1000 nM; at NRAS Q61K, 1000 to 10000 nM; at NRAS WT it was 1000 to 10000 nM; on NRAS G12C, 100 to 1000 nM. In addition, the IC50 was 1000 to 10000 nM on K-Ras G13C, more than 10000 nM at KRAS G13D, 1000 to 10000 nM on KRAS G12V and 1000 to 10000 nM on NRAS Q61R.
